This is an account of results in paper PMC3859378 (Archives of biochemistry and biophysics, 2013).

This experiment addresses Mtb-GAPDH (Mycobacterium tuberculosis, UniProt P9WN83). The experiment in a line: time- and concentration-dependent inactivation, Kitz-Wilson re-plot. The settings on record: read-out: Ki. The class given is biochemical.

Mtb-GAPDH, sequence (P9WN83 whole entry): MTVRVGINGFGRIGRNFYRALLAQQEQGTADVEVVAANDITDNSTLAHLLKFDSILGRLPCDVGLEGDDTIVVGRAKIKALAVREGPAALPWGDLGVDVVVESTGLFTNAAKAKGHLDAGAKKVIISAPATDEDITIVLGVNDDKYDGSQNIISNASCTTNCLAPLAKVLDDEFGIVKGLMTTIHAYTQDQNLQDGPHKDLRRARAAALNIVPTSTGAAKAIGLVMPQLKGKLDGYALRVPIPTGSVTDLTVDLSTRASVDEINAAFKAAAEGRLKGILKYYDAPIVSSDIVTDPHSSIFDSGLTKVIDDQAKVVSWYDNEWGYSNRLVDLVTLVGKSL

`NC(=O)CI` [IAM, iodoacetamide]: the KI (inactivation) is 7.8 mM.
